Read-outs that look alike come from different tables or passages of the source.
Experiments:
[1] = tested on: olfactory epithelium; experiment: Height (thickness) of olfactory epithelium after 3-methylindole damage, H&E staining; assay type: in vivo, Sprague-Dawley rats; settings: rats, 3-methylindole 150 mg/kg i.p., drug 10 mg/kg oral daily; for height of olfactory epithelium: time point not printed (first sampling, fourth day), mean±SD
Description: (§1) To collect the olfactory tissues of the test group, the reference group and the control group, the test animals of the three groups were sacrificed on the fourth day, the seventh day, the fourteenth day and the twenty eighth day after the treatment with 3-methylindole. Six test animals were sacrificed each time.
(§2) H&E staining of the tissue obtained from Example 1-2 was performed by treating the paraffin block cut into a thickness of 4 μm via the above trimming and microtomy steps of Example 1-2 with a hematoxylin solution (Zymed, USA) and an eosin solution (eosin Y, Sigma, USA). More particularly, the H&E staining was performed as follows.
(§3) The paraffin block cut into a thickness of 4 μm as described in Example 1-2, i.e. the tissue specimen, was deparaffinized by repeating a xylene treatment cycle (dipping the tissue into 100% xylene twenty times) three times, was subjected to rehydration and staining with a hematoxylin solution for 5 minutes, and then was washed thoroughly with flowing water for 15 minutes. The washed tissue specimen was subjected to differential staining in 0.25% eosin solution for 40 seconds. After the differential staining, the tissue specimen was treated with an increasing amount of alcohol from a lower concentration to a higher concentration (i.e. 50%, 70%, 95% and 100% alcohol) for 1 hour at each concentration to further carry out dehydration. The dehydrated tissue specimen was passed through xylene three times and was encapsulated by covering it with a cover slide.
(§4) To observe damage to or recovery of the olfactory mucous membrane epithelia, the heights and arrangements of the epithelia in the test groups were compared to each other after carrying out H&E staining. To perform the comparison of the heights of the olfactory epithelia, the height of the olfactory epithelium in each test group was measured by taking a photograph of the olfactory mucous membrane at both upper sides of the nasal septum at a magnitude of 200×, wherein the average height of the olfactory mucous membrane epithelium was determined by using an Image J Program (NIH). Also, to perform the comparison of the heights of the olfactory epithelia, columnar arrangement corresponding to the arrangement of the olfactory epithelial cells in each test group was determined.
After measuring the heights of the olfactory epithelia, statistical analysis of the results was performed by using the above mentioned Anova test with Bonferroni's correction.

[2] = tested on: olfactory epithelial cells; experiment: Columnar arrangement grade of olfactory epithelial cells after 3-methylindole damage, H&E staining; assay type: in vivo, Sprague-Dawley rats; settings: grade 1 (not arranged) to 3 (well arranged), drug 10 mg/kg oral daily
Description: as §1, §2, §3, §4
Herein, as the grade number increases, a higher degree of regeneration is made in the olfactory mucous membranes.
Additionally, columnar arrangement of the olfactory epithelial cells in each group was determined. The columnar arrangement of each group is shown in FIG. 3 as a grade evaluated according to the above criteria.

[3] = tested on: olfactory receptor cells; settings: grade 0 to 4, higher = more regeneration, drug 10 mg/kg oral daily
Description: As test animals, female white Sprague-Dawley rats (Orient Co., Korea) having a body weight of 100-150 g were used. […] The test animals were raised in raising chambers for one week.
The test animals in the test group and the reference group were subjected to intraperitoneal injection of 150 mg/kg (body weight of each test animal) of 3-methylindole (3-MI) so that their olfactory epithelia were damaged. […] To the test animals in the reference group, 10 mg/kg (body weight of each test animal) of a steroid formulation, i.e. prednisolone, dissolved in 1 cc of saline was orally administered according to the same protocol as the test group. Additionally, to the test animals in the control group, the same amount (1 cc) of saline was administered after the olfactory epithelia were damaged, according to the same protocol as the test group.
To observe the distribution of the olfactory receptor cells, immunoreactivity to protein gene product 9.5 (PGP 9.5) known to exist specifically in the olfactory nerve cells was investigated.
The immunohistological staining was performed by using a Histostain-Plus kit (Zymed, San Francisco, USA). The paraffin block cut into a thickness of 4 μm, i.e. the tissue specimen was positioned on a slide coated with poly-L-lysine and was subjected to rehydration by using a decreasing amount of alcohol gradually from 100% alcohol to distilled water. The rehydrated tissue specimen was introduced into heated 10 mM citrate buffer (pH 5.0, Sigma, USA) and was further heated in a microwave oven twice, for 5 minutes each time. Next, the heated tissue specimen was removed from the microwave oven, cooled in the 10 mM citrate buffer for 20 minutes, washed with distilled water, allowed to react with 0.05M Tris-HCl buffer (Tris buffered saline, TBS) containing 3% H2O2 added thereto for 20 minutes to remove the activity of the endogenous peroxidase, and then was washed with 0.05M Tris-HCl buffered saline three times. After removing the activity of the endogenous peroxidase, the washed tissue specimen was treated with 0.1% Triton X-100 (USB, Ohio, USA) for 15 minutes, and further washed with 0.05M Tris-HCl buffered saline three times. After the treatment with 0.1% Triton X-100, the washed tissue specimen was allowed to react with a blocking reagent (10% normal goat serum) for 30 minutes to inhibit non-specific antigen-antibody reactions. […]

[4] = fourteen days after 3-methylindole
[5] = seven days after 3-methylindole
[6] = twenty eight days after 3-methylindole

Compound	thickness of olfactory epithelium [1, 4]	thickness of olfactory epithelium [1, 5]	height of olfactory epithelium [1]	thickness of olfactory epithelium [1, 6]	average grade of columnar arrangement of olfactory epithelial cells ([2]; four days after 3-methylindole)	average grade of columnar arrangement of olfactory epithelial cells [2, 4]	average grade of columnar arrangement of olfactory epithelial cells [2, 5]	average grade of columnar arrangement of olfactory epithelial cells [2, 6]	average PGP 9.5 immunostaining grade ([3]; four days after 3-methylindole)	average PGP 9.5 immunostaining grade [3, 4]	average PGP 9.5 immunostaining grade [3, 5]	average PGP 9.5 immunostaining grade [3, 6]
CC(C)c1c(C(=O)Nc2ccccc2)c(-c2ccccc2)c(-c2ccc(F)cc2)n1CC[C@@H](O)C[C@@H](O)CC(=O)O [atorvastatin]	58.6±16.3 μm	56.1±26.9 μm	17.4±15.1 μm	63.9±20.2 μm	1.0±0.5	1.7±0.7	1.7±0.3	2.8±0.5	–	–	–	–
C[C@]12C=CC(=O)C=C1CC[C@@H]1[C@@H]2[C@@H](O)C[C@@]2(C)[C@H]1CC[C@]2(O)C(=O)CO [prednisolone]	60.5±11.6 μm	21.1±13.4 μm	9.5±4.7 μm	72.2±21.8 μm	0.9±0.3	1.8±0.5	–	2.5±0.4	0.5±0.67	2.42±1.38	0.92±0.79	1.75±1.22

Source: patent publication US20080125405A1, “Composition for treating or preventing olfactory disorder” (Samsung Life Public Welfare Foundation Samsung Medical …, priority 2006, published 2008)
